Results: patent publication US7348413B2, “Cancerous disease modifying antibodies” (Arius Research Inc., priority 2004, dated 2008)

System: PC-3, LnCap and CCD-27sk
Details: 5 days
Protocol: In conjunction with testing for antibody binding the cytotoxic effect of the hybridoma supernatants were tested in the same cell lines: PC-3, LnCap and CCD-27sk. The Live/Dead cytotoxicity assay was obtained from Molecular Probes (Eu, OR). The assays were performed according to the manufacturer's instructions with the changes outlined below. Cells were plated before the assay at the predetermined appropriate density. After 2 days, 100 μl of supernatant from the hybridoma microtitre plates were transferred to the cell plates and incubated in a 5 percent CO2 incubator for 5 days. […] After 5 days of treatment, the plates were then emptied by inverting and blotting dry. Room temperature DPBS (Dulbecco's phosphate buffered saline) containing MgCl2 and CaCl2 was dispensed into each well from a multichannel squeeze bottle, tapped 3 times, emptied by inversion and then blotted dry. 50 μl of the fluorescent calcein dye diluted in DPBS containing MgCl2 and CaCl2 was added to each well and incubated at 37° C. in a 5% CO2 incubator for 30 minutes. The plates were read in a Perkin-Elmer HTS7000 fluorescence plate reader and the data was analyzed in Microsoft Excel.

Row | SMILES | cytotoxicity of positive controls
1 | [N-]=[N+]=[N-] [NaN3, sodium azide] | generally produced cytotoxicity as expected
2 | C[C@@H]1C[C@@H]([C@H](O)CC2CC(=O)NC(=O)C2)C(=O)[C@@H](C)C1 [cycloheximide] | generally produced cytotoxicity as expected
